Read-outs that look alike come from different tables or passages of the source.
Tests used:
clinically isolated MRSA = experiment: Antibacterial potency against clinically isolated MRSA (Test Example 4); assay type: cell-based, methicillin-resistant Staphylococcus aureus; conditions: Staphylococcus aureus
Description: 52 strains of clinically isolated MRSA were used, and MIC was determined for each of the strains according to the standard method of the Japan Chemotherapical Society as in Test Example 1. The minimum growth inhibitory concentration which inhibited growth of 50% of the strains tested was expressed as MIC50 (µg/ml), and the minimum growth inhibitory concentration which inhibited growth of 90% of the strains was expressed as MIC90 (µg/ml).
MIC 50 and MIC 90 were determined for each of the 52 strains of clinically isolated MRSA according to the same method as used in Test Example 2.
VCM (vancomycin) was used as control agent.

S. aureus 167 = experiment: MIC against standard strains (Test Example 3); assay type: cell-based; conditions: Staphylococcus aureus
Description: (§1) By using each test strain cultured overnight at 37°C in a Muller-Hinton broth, there was prepared a bacterial solution with a bacterial cell population of 1 x 10^6 CFU/mi of the same bouillon. The bacterial solution was inoculated into the Muller-Hinton agar media each containing respectively one test agent and, after overnight incubation at 37°C, the minimum concentration that inhibited growth of the bacteria was determined and shown as MIC also in Table 1.
(§2) The minimum growth inhibitory concentration was determined for each of the 21 standard strains shown in Table 3, according to the same method as used in Test Example 1.
(§3) In the test, FMOX (flomoxef), CTM (cefotiam) and CEZ (cefazolin) were used as control agents.

A. faecalis ATCC3750 = experiment: MIC against standard strains (Test Example 3); assay type: cell-based; conditions: Alcaligenes faecalis
Description: as §1, §2, §3

P. vulugaris OX-19 = experiment: MIC against standard strains (Test Example 3); assay type: cell-based
Description: as §1, §2, §3

M. luteus ATCC 9341 = experiment: MIC against standard strains (Test Example 3); assay type: cell-based; conditions: Micrococcus luteus, ATCC9341
Description: as §1, §2, §3

E. coli CSH2 (RK1) = experiment: MIC against standard strains (Test Example 3); assay type: cell-based; conditions: Escherichia coli
Description: as §1, §2, §3

S. epidemidis IAM1296 = experiment: MIC against standard strains (Test Example 3); assay type: cell-based
Description: as §1, §2, §3

S. aureus 209p JC-1 = experiment: MIC against standard strains (Test Example 3); assay type: cell-based; conditions: Staphylococcus aureus
Description: as §1, §2, §3

A. calcoaceticos T59 = experiment: MIC against standard strains (Test Example 3); assay type: cell-based
Description: as §1, §2, §3

B. subtilis ATCC6633 = experiment: MIC against standard strains (Test Example 3); assay type: cell-based; conditions: Bacillus subtilis
Description: as §1, §2, §3

S. aureus 195 = experiment: MIC against standard strains (Test Example 3); assay type: cell-based; conditions: Staphylococcus aureus
Description: as §1, §2, §3

E. coli NIHJ JC-2 = experiment: MIC against standard strains (Test Example 3); assay type: cell-based; conditions: Escherichia coli, NIHJJC2
Description: as §1, §2, §3

S. aureus Smith = experiment: MIC against standard strains (Test Example 3); assay type: cell-based; conditions: Staphylococcus aureus
Description: as §1, §2, §3

E. cloacae ATCC13407 = experiment: MIC against standard strains (Test Example 3); assay type: cell-based; conditions: Enterobacter cloacae
Description: as §1, §2, §3

P. mirabilis IFO3849 = experiment: MIC against standard strains (Test Example 3); assay type: cell-based; conditions: Proteus mirabilis
Description: as §1, §2, §3

E. coli CSH2 (RE45) = experiment: MIC against standard strains (Test Example 3); assay type: cell-based; conditions: Escherichia coli
Description: as §1, §2, §3

S. marcescens IAM1184 = experiment: MIC against standard strains (Test Example 3); assay type: cell-based; conditions: Serratia marcescens
Description: as §1, §2, §3

M. Morganii IFO3848 = experiment: MIC against standard strains (Test Example 3); assay type: cell-based; conditions: Morganella morganii
Description: as §1, §2, §3

C. freundii ATCC8090 = experiment: MIC against standard strains (Test Example 3); assay type: cell-based; conditions: Citrobacter freundii
Description: as §1, §2, §3

K. pneumoniae IFO3317 = experiment: MIC against standard strains (Test Example 3); assay type: cell-based; conditions: Klebsiella pneumoniae
Description: as §1, §2, §3

K. pneumoniae No. 42 = experiment: MIC against standard strains (Test Example 3); assay type: cell-based; conditions: Klebsiella pneumoniae
Description: as §1, §2, §3

P. aeruginosa NCTC10490 = experiment: MIC against standard strains (Test Example 3); assay type: cell-based; conditions: Pseudomonas aeruginosa
Description: as §1, §2, §3

[1] = 52 strains of clinically isolated MRSA, concentration inhibiting growth of 50% of the strains (Test Example 4), read-out: MIC50
[2] = 52 strains of clinically isolated MRSA, concentration inhibiting growth of 90% of the strains (Test Example 4), read-out: MIC90
[3] = S. aureus 167 (MRSA) (Test Example 3), read-out: MIC
[4] = A. faecalis ATCC3750 (Test Example 3), read-out: MIC
[5] = P. vulugaris OX-19 (Test Example 3), read-out: MIC
[6] = M. luteus ATCC 9341 (Test Example 3), read-out: MIC
[7] = S. epidemidis IAM1296 (Test Example 3), read-out: MIC
[8] = S. aureus 209p JC-1 (Test Example 3), read-out: MIC
[9] = A. calcoaceticos T59 (Test Example 3), read-out: MIC
[10] = B. subtilis ATCC6633 (Test Example 3), read-out: MIC
[11] = S. aureus 195 (MRSA) (Test Example 3), read-out: MIC
[12] = E. coli NIHJ JC-2 (Test Example 3), read-out: MIC
[13] = S. aureus Smith (Test Example 3), read-out: MIC
[14] = E. cloacae ATCC13407 (Test Example 3), read-out: MIC
[15] = P. mirabilis IFO3849 (Test Example 3), read-out: MIC
[16] = S. marcescens IAM1184 (Test Example 3), read-out: MIC
[17] = M. Morganii IFO3848 (Test Example 3), read-out: MIC
[18] = C. freundii ATCC8090 (Test Example 3), read-out: MIC
[19] = K. pneumoniae IFO3317 (Test Example 3), read-out: MIC
[20] = K. pneumoniae No. 42 (Test Example 3), read-out: MIC
[21] = P. aeruginosa NCTC10490 (Test Example 3), read-out: MIC

SMILES: NC(=O)Oc1ccc[n+](CC2=C(C(=O)[O-])N3C(=O)[C@@H](NC(=O)/C(=N\O)c4csc(N)n4)[C@H]3SC2)c1 [Compound (8), 7β-[2-(2-aminothiazol-4-yl)-2-syn-hydroxyiminoacetamido]-3-[(3-carbamoyloxy-1-pyridinio)methyl]-3-cephem-4-carboxylic acid chloride]
- MIC50 (clinically isolated MRSA; MRSA): 8.34 µg/mL
- MIC90 (clinically isolated MRSA; MRSA): 37.9 µg/mL
- MIC (S. aureus 167; MRSA): 50 µg/mL
- MIC (A. faecalis ATCC3750; ATCC3750): 0.78 µg/mL
- MIC (P. vulugaris OX-19): 0.2 µg/mL
- MIC (M. luteus ATCC 9341): 0.1 µg/mL
- MIC (E. coli CSH2 (RK1)): 0.39 µg/mL
- MIC (S. epidemidis IAM1296): 0.39 µg/mL
- MIC (S. aureus 209p JC-1; 209P): 0.78 µg/mL
- MIC (A. calcoaceticos T59): 25 µg/mL
- MIC (B. subtilis ATCC6633; ATCC6633): 0.39 µg/mL
- MIC (S. aureus 195; MRSA): 25 µg/mL
- MIC (E. coli NIHJ JC-2): 0.1 µg/mL
- MIC (S. aureus Smith): 1.56 µg/mL
- MIC (E. cloacae ATCC13407; ATCC13407): 1.56 µg/mL
- MIC (P. mirabilis IFO3849; IFO3849): 0.1 µg/mL
- MIC (E. coli CSH2 (RE45)): 0.2 µg/mL
- MIC (S. marcescens IAM1184; IAM1184): 0.39 µg/mL
- MIC (M. Morganii IFO3848; IFO3848): 0.05 µg/mL
- MIC (C. freundii ATCC8090; ATCC8090): 0.39 µg/mL
- MIC (K. pneumoniae IFO3317; IFO3317): 0.1 µg/mL
- MIC (K. pneumoniae No. 42; NO.42): 0.39 µg/mL
- MIC (P. aeruginosa NCTC10490; NCTC10490): 100 µg/mL

SMILES: CCN(CC)C(=O)c1ccc[n+](CC2=C(C(=O)[O-])N3C(=O)[C@@H](NC(=O)/C(=N\O)c4csc(N)n4)[C@H]3SC2)c1 [Compound (14), 7β-[2-(2-aminothiazol-4-yl)-2-syn-hydroxyiminoacetamido]-3-[(3-N,N-diethylcarbamoyl-I-pyridinio)methyl]-3-cephem-4-carboxylic acid chloride]
- MIC50 (clinically isolated MRSA; [1]): 6.77 µg/mL
- MIC90 (clinically isolated MRSA; [2]): 11.8 µg/mL
- MIC (S. aureus 167; [3]): 12.5 µg/mL
- MIC (A. faecalis ATCC3750; [4]): 3.13 µg/mL
- MIC (P. vulugaris OX-19; [5]): 0.78 µg/mL
- MIC (M. luteus ATCC 9341; [6]): 0.2 µg/mL
- MIC (E. coli CSH2 (RK1)): 3.13 µg/mL
- MIC (S. epidemidis IAM1296; [7]): 0.39 µg/mL
- MIC (S. aureus 209p JC-1; [8]): 0.78 µg/mL
- MIC (A. calcoaceticos T59; [9]): 12.5 µg/mL
- MIC (B. subtilis ATCC6633; [10]): 0.39 µg/mL
- MIC (S. aureus 195; [11]): 6.25 µg/mL
- MIC (E. coli NIHJ JC-2; [12]): 0.78 µg/mL
- MIC (S. aureus Smith; [13]): 0.78 µg/mL
- MIC (E. cloacae ATCC13407; [14]): 3.13 µg/mL
- MIC (P. mirabilis IFO3849; [15]): 1.56 µg/mL
- MIC (E. coli CSH2 (RE45)): 0.78 µg/mL
- MIC (S. marcescens IAM1184; [16]): 0.78 µg/mL
- MIC (M. Morganii IFO3848; [17]): 0.39 µg/mL
- MIC (C. freundii ATCC8090; [18]): 0.78 µg/mL
- MIC (K. pneumoniae IFO3317; [19]): 0.78 µg/mL
- MIC (K. pneumoniae No. 42; [20]): 3.13 µg/mL
- MIC (P. aeruginosa NCTC10490; [21]): 6.25 µg/mL

SMILES: Nc1nc(/C(=N/O)C(=O)N[C@@H]2C(=O)N3C(C(=O)[O-])=C(C[n+]4cccc(-c5csc(N)n5)c4)CS[C@H]23)cs1 [Compound (9), 7β-[2-(2-aminothiazol-4-yl)-2-syn-hydroxyiminoacetamido]-3-[[3-(2-aminothiazol-4-yl)-1-pyridinio]methyl]-3-cephem-4-carboxylic acid chloride]
- MIC50 (clinically isolated MRSA; [1]): 1.48 µg/mL
- MIC90 (clinically isolated MRSA; [2]): 2.92 µg/mL
- MIC (S. aureus 167; [3]): 3.13 µg/mL
- MIC (A. faecalis ATCC3750; [4]): 1.56 µg/mL
- MIC (P. vulugaris OX-19; [5]): 0.2 µg/mL
- MIC (M. luteus ATCC 9341; [6]): 0.05 µg/mL
- MIC (E. coli CSH2 (RK1)): 0.39 µg/mL
- MIC (S. epidemidis IAM1296; [7]): 0.05 µg/mL
- MIC (S. aureus 209p JC-1; [8]): 0.2 µg/mL
- MIC (A. calcoaceticos T59; [9]): 12.5 µg/mL
- MIC (B. subtilis ATCC6633; [10]): 0.2 µg/mL
- MIC (S. aureus 195; [11]): 1.56 µg/mL
- MIC (E. coli NIHJ JC-2; [12]): 0.2 µg/mL
- MIC (S. aureus Smith; [13]): 0.2 µg/mL
- MIC (E. cloacae ATCC13407; [14]): 0.78 µg/mL
- MIC (P. mirabilis IFO3849; [15]): 0.39 µg/mL
- MIC (E. coli CSH2 (RE45)): 0.39 µg/mL
- MIC (S. marcescens IAM1184; [16]): 0.39 µg/mL
- MIC (M. Morganii IFO3848; [17]): 0.1 µg/mL
- MIC (C. freundii ATCC8090; [18]): 0.2 µg/mL
- MIC (K. pneumoniae IFO3317; [19]): 0.2 µg/mL
- MIC (K. pneumoniae No. 42; [20]): 0.78 µg/mL
- MIC (P. aeruginosa NCTC10490; [21]): 3.13 µg/mL
